Measured values as given in US20240307345A1, “R-MDMA and S-MDMA TO ASSIST PSYCHOTHERAPY” (Universitatsspital Basel, priority 2022, published 2024).
“Also recorded” adds a separate entry of the source.

Columns and labels:
healthy subjects [1] = test: Adverse effects (List of Complaints); type: in vivo, human; conditions: for adverse effects 24 to 72 hours after substance administration: 125 mg, compared with placebo
Description: (§1) Study design: The present study compares the acute subjective, physiological and endocrine effects of S-MDMA (125 mg), R-MDMA (125 and 250 mg), MDMA (125 mg) using a placebo-controlled double-blind 5-period cross-over design in 24 healthy subjects. Conditions are 1.) R-MDMA 125 mg, 2). R-MDMA 250 mg, 3) S-MDMA 125 mg, 4) MDMA 125 mg, 5) placebo. Treatment order is counterbalanced. Washout periods between substance administrations are at least 10 days. Study days include a 10-hour study session with a subsequent single measurement (short visit) the next morning (24 hours after drug administration).
Adverse effects (list of complaints): The list of complaints (LC) consists of 66 items offering a global score measuring physical and general discomfort (Zerssen, 1976). The LC is administered before (baseline), at the end of the session to cover effects from 0-9 hours and 24 hours after substance administration to cover aftereffects from 9-24 hours. To assess adverse effects after 24 hours, subjects fill out an additional LC 3 days after the test session, covering adverse effects from 24-72 hours. Subjects are additionally be asked to report any adverse events during the sessions or/and between study sessions as assessed at the beginning of the next session and at the EOS visit. Global LC scores are summed up and compared between treatments using analysis of variance.

healthy subjects [2] = test: Alteration of mind and mystical-type effects on 5D-ASC and MEQ questionnaires; type: in vivo, human; conditions: for acute mystical-type experiences on the 5D-ASC scale: 24 subjects
Description: as §1
Psychometric assessments: Visual Analog Scale (VAS): VASs is repeatedly used to assess subjective alterations in consciousness over time. Single scales are presented as 100 mm horizontal lines marked with “not at all” on the left and “extremely” on the right. The following VAS items are used: “any drug effect”, “good drug effect”, “bad drug effect”, “stimulated”, “liking”, “happy”, “content”, “talkative”, “open”, “trust”, “feeling close to others”, “anxiety”, “alteration of vision”, “alterations of hearing”, “sounds seem to influence what I see”, “alteration of sense of time”, “the boundaries between myself and my surroundings seem to blur”, “want to be with other people”, and “want to be alone”. Scales are administered before and repeatedly after substance administration and take approximately 2 minutes to fill out. The maximal ratings (Emax, 0-100) and areas under the effect-time curve (AUEC) are defined for each VAS and Emax and AUEC values compared between treatments using analysis of variance. 5-Dimensions of Altered States of Consciousness (5D-ASC): The 5 Dimensions of Altered States of Consciousness (5D-ASC) Scale is a questionnaire containing visual analog scales for 94 items (Studerus et al., 2010). The instrument contains five scales assessing mood, anxiety, derealization, depersonalization, changes in perception, auditory alterations, and reduced vigilance. The scale is well-validated (Studerus et al., 2010) and used internationally to evaluate effects of many other psychoactive substances. The overall psychedelic experience is reflected by the total […] score. Each item of the scale is scored on a 0-100 mm VAS. The attribution of the individual items to the subscales of the 5D-ASC is analyzed according to (Studerus et al., 2010). The 5D-ASC scale is administered once at the end of the session and subjects are instructed to retrospectively rate peak alterations that have been experienced during the study session. Adiective Mood Rating Scale (AMRS): The Adjective Mood Rating Scale (AMRS or EWL60S) is a 60-item Likert scale that allows repeated assessment of mood in 6 dimensions: Activation, inactivation, well-being, anxiety/depressed mood, extra- and introversion, and emotional excitability. The German EWL60S version is used. The AMRS consists of subscales measuring “activation,” “positive mood,” “extraversion,” “introversion,” “inactivation,” and “emotional excitability. The scale has previously been used to evaluate effects of many other psychoactive substances. Emax and AUEC scores will be defined for each subscale and compared between treatments using analysis of variance. The AMRS is administered repeatedly throughout the study session and once 3 days after each session. States of Consciousness Questionnaire (SCQ): In the SCQ, 100-items are rated on a six-point scale. Forty-three items embedded into this questionnaire comprise the Mystical Experience Questionnaire (MEQ) (MacLean et al., 2011) which is sensitive to the effects of psychedelic substances such as LSD. […]

model of PTSD = conditions: cited from earlier work
healthy subjects [3] = test: Connectedness subscale of the PES questionnaire; type: in vivo, human
healthy subjects [4] = test: Clinical cross-over study, overall comparison of the substances; type: in vivo, human; conditions: for dose of more equivalent strength to 125 mg (±)-MDMA: based on the results of the present study; for acute subjective effects and adverse effects: conclusion over the doses tested
Description: as §1

mice = conditions: cited from earlier work
rodents = conditions: relative to racemic MDMA; cited from earlier work
healthy subjects [5] = test: Autonomic effects (blood pressure, heart rate, body temperature); type: in vivo, human
Description: as §1
Autonomic measures: Blood pressure, heart rate, and body temperature are recorded at baseline and repeatedly throughout the session. Blood pressure (systolic and diastolic) and heart rate are measured with an automatic oscillometric device. Body temperature is measured with an ear thermometer. Emax is determined for each of the measures and for each study session. These Emax values are then compared between drug conditions using analysis of variance.

[6] = 125 mg, compared with placebo (and 125 mg R-MDMA)

CN[C@H](C)Cc1ccc2c(c1)OCO2 [R-MDMA, R(−)-MDMA]
adverse effects 24 to 72 hours after substance administration (healthy subjects [1]): only increased; also recorded: increased number of adverse effects | overall adverse effects (healthy subjects [1]; R-MDMA versus (±)-MDMA): it does not seem that R-MDMA produces overall less adverse effects | acute mystical-type experiences on the 5D-ASC scale (healthy subjects [2]; 125 mg): only significantly induced mystical-type effects on the 5D-ASC total score and the “Reductions of vigilance” scale | psychedelic effects on the 5D-ASC and the MEQ questionnaires (healthy subjects [2]; [6]): only significantly induced the 5D-ASC total score and the dimension “Reductions of vigilance” on the 5D-ASC and “positive mood”, “Ineffability” and the MEQ30 total score | acute mystical-type experiences on the 5D-ASC scale (healthy subjects [2]; 250 mg): comparable effects with no significant differences | psychedelic effects on the 5D-ASC and the MEQ questionnaires (healthy subjects [2]; 250 mg, compared with placebo and 125 mg R-MDMA): comparable and overall greater psychedelic effects | conditioned fear when retention of extinction was assessed (model of PTSD): reduced conditioned fear | ratings of connectedness, difference between conditions (healthy subjects [3]; 250 mg): no difference | cardio and psychostimulant effects / properties (healthy subjects [4]; R-MDMA (125 and 250 mg) compared with S-MDMA): lower cardio and psychostimulant effects; also recorded: less cardiostimulant and psychostimulant properties | dose of more equivalent strength to 125 mg (±)-MDMA (healthy subjects [4]): 300 mg | acute subjective effects and adverse effects (healthy subjects [4]): overall comparable | effect on social interaction and connectedness (healthy subjects [4]; within the dose range tested (125 and 250 mg)): less pronounced | duration of discriminative stimulus effects (mice): shortest | potency for locomotor stimulant effects (rodents): clearly less potent than racemic MDMA | body temperature (healthy subjects [5]; 125 mg): did not increase body temperature significantly compared to placebo | body temperature (healthy subjects [5]; 250 mg): increased similarly; also recorded: increased body temperature as much as (±)-MDMA and S-MDMA; also recorded: increased body temperature only moderately | heart rate (healthy subjects [5]; 250 mg, versus placebo): increase heart rate comparably and more than with placebo

CN[C@@H](C)Cc1ccc2c(c1)OCO2 [S-MDMA, S(+)-MDMA]
adverse effects 24 to 72 hours after substance administration (healthy subjects [1]): only increased; also recorded: increased number of adverse effects | acute mystical-type experiences on the 5D-ASC scale (healthy subjects [2]; 125 mg): comparable effects with no significant differences | psychedelic effects on the 5D-ASC and the MEQ questionnaires (healthy subjects [2]; [6]): comparable and overall greater psychedelic effects | conditioned fear during extinction training (model of PTSD): reduced conditioned fear during extinction training but not thereafter | ratings of connectedness, difference between conditions (healthy subjects [3]; 125 mg): no difference | dose of more equivalent strength to 125 mg (±)-MDMA (healthy subjects [4]): 100 mg | acute subjective effects and adverse effects (healthy subjects [4]): overall comparable | onset of interoceptive effects (mice; compared with R-MDMA): faster | potency for locomotor stimulant effects (rodents): mostly equipotent to racemic MDMA | body temperature (healthy subjects [5]; 125 mg): increased similarly; also recorded: increased body temperature only moderately | increases in blood pressure (healthy subjects [5]; 125 mg S-MDMA versus (±)-MDMA and both doses of R-MDMA): higher increases | heart rate (healthy subjects [5]; 125 mg S-MDMA versus the other substance conditions): only significantly higher compared with 125 mg of R-MDMA | heart rate (healthy subjects [5]; 125 mg, versus placebo): increase heart rate comparably and more than with placebo
